Patent publication US20080311037A1, “Compounds which bind PSMA and uses thereof” (priority 2005, published 2008)

Tests used:
PSMA [1] = target: T1, PSMA (Homo sapiens, UniProt Q04609); experiment: Inhibition of folate hydrolase activity of PSMA, PSMA positive membrane preparations, substrate MTXGlu2, HPLC; assay type: biochemical; design: host or cells: PSMA positive membrane preparations
Procedure: (§1) Described herein are new compounds, which can activate RNase L in PSMA expressing cells. 2-5A was targeted for delivery to PSMA by linking it with a ligand to PSMA. We modified ZJ24, a low molecular weight ligand for PSMA, with 2-5A through a 4-(N-maleimidomethyl)cyclohexane-1-amidate linkage to generate RBI 1033. The inhibitory activity of RBI 1033 to the folate hydrolase activity of PSMA was measured. The PSMA positive membrane preparations were incubated with different concentrations of ZJ24, RBI 1033 and RBI 1032 (2-5A with linker only) together with the substrate methotrexate diglutamate (MTXGlu2) for 1 h. The amount of methotrexate and MTXGlu2 were then determined by HPLC. […] Binding studies were performed by incubating membranes with different concentrations of drugs in the presence of 12 nM of ^3H-ZJ24 for 30 min. […] These studies indicate that RBI 1033 has excellent binding properties to PSMA, which can enable it to serve as a vector for imaging or therapy.
Target sequence in this assay (Q04609 whole entry): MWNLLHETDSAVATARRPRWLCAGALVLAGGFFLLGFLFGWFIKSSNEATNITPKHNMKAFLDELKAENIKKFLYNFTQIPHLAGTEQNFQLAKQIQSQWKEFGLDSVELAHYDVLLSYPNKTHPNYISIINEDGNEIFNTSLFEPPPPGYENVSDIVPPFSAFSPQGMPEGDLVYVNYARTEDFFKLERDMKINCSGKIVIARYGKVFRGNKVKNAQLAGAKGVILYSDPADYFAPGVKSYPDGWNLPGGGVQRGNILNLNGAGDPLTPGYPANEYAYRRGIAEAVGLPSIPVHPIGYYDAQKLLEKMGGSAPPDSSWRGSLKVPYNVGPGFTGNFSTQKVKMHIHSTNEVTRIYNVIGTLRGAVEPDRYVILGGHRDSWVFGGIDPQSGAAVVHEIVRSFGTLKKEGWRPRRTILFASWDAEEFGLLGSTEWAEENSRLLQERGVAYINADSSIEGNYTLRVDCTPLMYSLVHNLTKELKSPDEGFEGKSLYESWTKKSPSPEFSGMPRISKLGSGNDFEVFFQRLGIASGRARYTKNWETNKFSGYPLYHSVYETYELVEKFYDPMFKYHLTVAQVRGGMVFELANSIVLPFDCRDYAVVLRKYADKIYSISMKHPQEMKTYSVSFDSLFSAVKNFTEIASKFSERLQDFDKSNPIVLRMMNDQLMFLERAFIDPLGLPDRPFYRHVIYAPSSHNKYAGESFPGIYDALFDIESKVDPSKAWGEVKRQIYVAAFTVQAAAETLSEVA

PSMA [2] = target: T1, PSMA; experiment: Inhibition of 3H-ZJ24 binding to cell membranes; design: host or cells: PSMA positive membrane preparations
Procedure: as §1
Target sequence in this assay (Q04609 whole entry): as above

[3] = target: T2, active dimeric form of soluble recombinant hPSMA (Homo sapiens, UniProt Q04609); experiment: Competition binding assay with 3H-ZJ24 on recombinant PSMA; details: 0.5 μg recombinant PSMA, 12 nM 3H-ZJ24, 30 min, 37° C
T2 construct: Recombinant protein of the extracellular domain of PSMA can also exist in readily inter-convertible dimer-monomer forms
Procedure: Binding and activity of the disclosed 2-5A ligand towards the active dimeric form of soluble recombinant hPSMA was compared with methylated parent ligand Cys-C(O)-Glu ZJ24. The binding assay examines the ability of a novel compound to compete for binding with radio-labeled ZJ24. Different final concentrations of the inhibitor can be incubated in the presence of ZJ24 and the concentration required to inhibit 50% of binding is determined (the EC50). Briefly, 0.5 μg of recombinant PSMA was incubated with the ligand to be tested at different concentrations and 12 nM of ^3H-ZJ24 in a total volume of 100 μL for 30 min at 37° C. The mixture was centrifuged through a 50 kDa cut-off membrane. Finally, 4 mL of biodegradable counting cocktail Bio-Safe II was added, and radioactivity was counted.

PSMA [4] = target: T1, PSMA; experiment: PSMA activity assay, hydrolysis of polyglutamate substrate MTXGlu2; assay type: biochemical; design: Recombinant protein of the extracellular domain of PSMA can also exist in readily inter-convertible dimer-monomer forms; details: 5 ng recombinant PSMA, MTXGlu2 5 nMol, 37° C, 1 h; read-out: EC50 for inhibition of PSMA activity
Procedure: The activity assay determines the ability of hPSMA to cleave/hydrolyze a polyglutamte substrate under the presence of a ligand at different concentrations. Briefly, recombinant PSMA (5 ng) was incubated with ZJ24 or disclosed 2-5A ligand. After 30 min the polyglutamate substrate MTXGlu2 (5 nMol) was added and the mixture was incubated at 37° C. for 1 h. The reaction was stopped by the addition of 100 μL of 50 mM Na2HPO4. The amount of MTX formed was analyzed using a Thermo Hypersil PRISM RP column (50×4.6 mm, flow rate 1.0 mL/min) at 313 nm.
Target sequence in this assay (Q04609 44-750 limits assumed): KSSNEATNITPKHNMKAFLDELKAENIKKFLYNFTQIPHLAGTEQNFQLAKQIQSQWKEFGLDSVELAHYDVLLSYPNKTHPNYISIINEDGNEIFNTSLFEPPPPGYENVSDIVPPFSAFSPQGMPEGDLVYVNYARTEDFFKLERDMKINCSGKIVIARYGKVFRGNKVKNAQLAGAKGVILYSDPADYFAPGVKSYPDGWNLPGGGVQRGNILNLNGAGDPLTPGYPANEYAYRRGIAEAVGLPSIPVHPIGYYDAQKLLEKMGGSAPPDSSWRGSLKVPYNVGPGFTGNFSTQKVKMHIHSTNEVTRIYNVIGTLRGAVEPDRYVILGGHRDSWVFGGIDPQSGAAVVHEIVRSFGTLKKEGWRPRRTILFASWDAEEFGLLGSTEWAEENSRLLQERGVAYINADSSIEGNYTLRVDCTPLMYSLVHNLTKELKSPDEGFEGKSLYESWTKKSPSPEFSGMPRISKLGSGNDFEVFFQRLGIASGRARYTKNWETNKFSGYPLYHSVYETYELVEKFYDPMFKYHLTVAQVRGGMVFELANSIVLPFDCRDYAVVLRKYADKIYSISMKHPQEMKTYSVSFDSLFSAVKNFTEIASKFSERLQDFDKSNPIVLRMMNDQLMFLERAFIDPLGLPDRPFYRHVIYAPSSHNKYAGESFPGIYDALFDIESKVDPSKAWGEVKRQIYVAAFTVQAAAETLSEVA

PSMA [5] = target: T1, PSMA; experiment: Binding of 3H-ZJ24 to recombinant hPSMA, Scatchard analysis; design: Recombinant protein of the extracellular domain of PSMA can also exist in readily inter-convertible dimer-monomer forms; details: 50 mM Tris buffer pH 7.5, 30 min, 37° C
Procedure: FIG. 2 is a graph showing binding to the monomeric and active dimeric form of soluble recombinant hPSMA of a ^3H (tritium) radiolabled (ZJ24), ^3H—(S)-2-[3-((R)-1-carboxy-2-methyl-sulfanyl-ethyl)-ureido]-pentanedioic acid or [^3H]MeCys-C(O)-Glu Parent PMSA ligand (6) maintains its specificity for PSMA by binding to recombinant hPSMA with a Kd of 2 nM based on Scatchard analysis. The binding assay was performed in 50 mM Tris buffer (pH 7.5). Briefly, 0.5 μg of recombinant PSMA was incubated with ^3H-ZJ24 in a total volume of 100 μL for 30 min at 37° C. The mixture was centrifuged through a 50K cutoff membrane. Then 50 μL of filtrate was added to 4 mL of cocktail and the radioactivity measured. […] After 60 min less than 10% of the compound found in kidney and plasma was degraded.
Target sequence in this assay (Q04609 44-750 limits assumed): as above

T2 sequence (Q04609 44-750 limits assumed): as above

## Nc1ncnc2c1ncn2[C@@H]1O[C@H](COP(O)(O)=S)[C@@H](O)[C@H]1OP(O)(=S)OC[C@H]1O[C@@H](n2cnc3c(N)ncnc32)[C@H](OP(O)(=S)OC[C@H]2O[C@@H](n3cnc4c(N)ncnc43)[C@H](OP(O)(=S)OCCCNC(=O)C3CCC(CN4C(=O)CC(SC[C@H](NC(=O)N[C@@H](CCC(=O)O)C(=O)O)C(=O)O)C4=O)CC3)[C@@H]2O)[C@@H]1O (stereo partly shown) [RBI 1033]
PSMA [1]; compared to ZJ24
  times more potent than ZJ24 as folate hydrolase inhibitor: more than 10 times
PSMA [2]; compared to ZJ24
  times higher affinity to PSMA than ZJ24: more than 10 times

## (S)-2-[3-((R)-1-carboxy-2-methyl-sulfanyl-ethyl)-ureido]-pentanedioic acid [ZJ24]
[3]
  EC50: 15.3 nM
PSMA [1]; PSMA positive membrane preparations, MTXGlu2 substrate, 1 h, read-out: IC50 as folate hydrolase inhibitor
  IC50: 53.9 nM
PSMA [2]; 12 nM 3H-ZJ24, 30 min, read-out: IC50 for inhibition of binding of 3H-ZJ24 to the cell membrane
  IC50: 15.3 nM
PSMA [4]
  EC50: 56.7 nM

## O=C(O)CCC(NC(=O)NC(CS)C(=O)O)C(=O)O (stereo not shown) [Parent PMSA ligand (6)]
PSMA [5]
  Kd: 2 nM
